Patent US11834393B2, “Organic compounds having taste-modifying properties” (GIVAUDAN SA, priority 2013, dated 2023)

Assays:
[1] = Beef bouillon, evaluation by a panel of experienced tasters; details: 1 ppm dosed to bouillon prepared from bouillon cubes
Protocol: A beef bouillon was prepared using bouillon cubes obtained from a local supermarket.

[2] = Mango flavoured beverage, evaluation by a panel of experienced tasters; details: 1 ppm dosed to mango drink (mango flavour 0.05% w/w, mango juice 0.18% w/w, sugar 8% w/w, citric acid 0.1% w/w)
Protocol: A mango-flavoured beverage was prepared using a standard mango flavour (0.05% w/w), mango juice (0.18% w/w), sugar (8% w/w) and citric acid (0.1% w/w).

| SMILES | taste of the beef bouillon compared with the reference (panel) [1] | taste of the mango drink compared with the reference drink (panel) [2] |
| --- | --- | --- |
| CCCCCCCCCCCCCCCCCCNC(=O)C(N)CCSC (stereo not shown) [Ex 1, 2-amino-4-(methylthio)-N-octadecylbutanamide] | more salty and more full | – |
| CCCCCCCCCCCCCCCCCCNC(=O)C1CCCN1 (stereo not shown) [Ex 3, N-octadecylpyrrolidine-2-carboxamide] | – | more over-ripe, more sweet, and more full and had an increased mouthfeel |
| CCCCCCCCCCCCCCCCCCNC(=O)C1(N)CC1 [Ex 5, 1-amino-N-octadecylcyclopropanecarboxamide] | – | more sweet, more ripe mango, more full and more long-lasting |
| CCCCCCCCCCCCCCCCNC(=O)CCCN [Ex 7, N-hexadecyl 4-aminobutyramide] | more salty and more umami and was more longlasting | – |
